T1: PaIspD (Pseudomonas aeruginosa, UniProt P57707)
T1 construct: His6 (N, cleaved yes); made in house; host or cells: Escherichia coli BL21 (DE3), pET28
T1 sequence (P57707 1-234): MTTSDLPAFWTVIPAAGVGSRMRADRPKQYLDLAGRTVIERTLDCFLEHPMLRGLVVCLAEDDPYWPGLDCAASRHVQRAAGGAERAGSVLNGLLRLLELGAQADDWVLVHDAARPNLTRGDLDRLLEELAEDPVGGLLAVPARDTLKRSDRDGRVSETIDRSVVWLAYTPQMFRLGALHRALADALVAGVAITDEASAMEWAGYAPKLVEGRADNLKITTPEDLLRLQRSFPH


What was measured:
PaIspD [1] = molecular target: T1, PaIspD; experiment: Determination of enzyme kinetics (Michaelis constants of substrates, LC-MS); assay type: biochemical; conditions: substrate of PaIspD; 50 nM PaIspD, 37 °C, 40 minutes
Experimental: (§1) Determination of enzyme kinetics
(§2) Table S1. Michaelis constants for MEP and CTP of PaIspD.
(§3) Substrate Km (mM) Vmax (AU/min-1)
(§4) Determination of enzyme kinetics. The assay was conducted as published before. To determine the Km values for CTP and MEP with PaIspD, substrate concentrations (0.016–2 mM) were prepared in a 96-well plate. Each well contained 100 μL of reaction mix with Buffer A (100 mM Tris-HCl pH 7.6, 1 mM DTT, 1 mM MgCl2) and 50 nM PaIspD. Serial dilutions of CTP or MEP were performed, and reactions were initiated by adding Buffer B (100 mM Tris-HCl pH 7.6, 1 mM DTT, 1 mM MEP or CTP). Plates were incubated at 37 °C for 40 minutes, denatured at 95 °C for 5 minutes, and centrifuged at 4000 rpm at 4 °C. Supernatants (10 μL) were mixed with an 190 μL ice-cold 3:1:1 ACN, isopropanol, water mixture containing 100 nM 4-methyl-1-oxo-1-(p-tolylamino)pentane-2-sulfonic acid, adenylyl-imidodiphosphate and adenosine-5′- [(α,β)-methyleno]triphosphate as internal standard. After centrifugation at 4000 rpm at 4 °C for 5 min, a 50 μL aliquot was transferred to an LC-MS plate for analysis. Peak areas were used to calculate Michaelis–Menten kinetics using GraphPad Prism v9. Measurements were done in duplicates and repeated in two independent experiments.
Figure S1: Kinetic parameters of PaIspD substrates (MEP, left and CTP, right). Each data point reflects the mean ± SD obtained from two-independent […]

PaIspD [2] = molecular target: T1, PaIspD; experiment: Microscale thermophoresis (MST) with dyed PaIspD; assay type: binding
Experimental: The microscale thermophoresis (MST) (Serial no. 201709-BR-N024, Monolith NT.115 Micro Scale Thermophoresis, NanoTemper Technologies GmbH.) was performed using dyed PaIspD, labeled according to the standard protocol from the manufacturer NanoTemper Technologies GmbH Protein Labeling Kit Red-NHS, 2nd Generation. A 2 mM ligand solution containing 10% DMSO was prepared (Solution I). A 200 µl solution of 10% DMSO containing buffer solution was prepared (Solution II). The buffer used was HEPES (50 mM), MgCl2 (5 mM) and Tween (0.05%) at pH 7.6 for all compounds. To PCR tubes 2-16, 10 µl of solution II was added. To tube 1, 20 µl of solution I was added. 10 µl from tube 1 was add to tube 2 and mixed. This was continued until tube 16. To each tube, 10 µL of the protein dye mixture was added and mixed. The mixture was allowed to incubate at room temperature for 5 minutes. Non-hydrophobic capillary tubes were used for measurement. Each sample was measured and analyzed in MO Control version 1.6.

PaIspD [3] = molecular target: T1, PaIspD; experiment: Fluorescence quenching (PaIspD); assay type: binding
Experimental: Fluorescence quenching (PaIspD)
Quenching is expressed as (I0 – I) / I0 with I0 the intensity (at 332 nm) of fluorescence in absence of compound and I the intensity of fluorescence upon addition of compound. Inset, fluorescence emission spectra in the presence of increasing concentrations of compound. The concentration of PaIspD was kept at 2 µM during the assay, the compounds were tested in concentration ranges given below. The excitation wavelength was set at 286 nm, emission spectra were recorded between 300 nm and 380 nm. The data were fitted using Qtiplot software (qtiplot.com). A least square fit to a simple bimolecular equilibrium was used to estimate the Kd values. Each measurement was reproduced two times. The measurements were carried out in the following buffer: 50 mM Tris-Cl pH = 8, 50 mM NaCl, 1mM MgCl2.
Table S1. Concentration ranges used to determine Kd during the Fluorescence quenching assay.

PaIspD [4] = molecular target: T1, PaIspD; experiment: 1H-STD NMR and competition STD NMR with CTP; assay type: binding
Source text: To further validate the occurrence of interactions taking place between the fragment and PaIspD, we referred to ^1H‐STD NMR spectroscopy, a commonly used technique for this purpose.[10, 11] We conducted this experiment in a HEPES buffer in D2O with a 100‐fold excess of 2 compared to PaIspD. In the corresponding difference spectrum, we identified all proton signals previously observed in the ^1H NMR spectrum of 2 (see Figure S2 and S3 in the Supporting Information). […] We further noted the magnitude of amplification of the signals as the efficiency of saturation transfer scales with distance, enabling us to gain an idea about the proximity of each proton to the protein surface.[12] Among all protons, those in position iii (Figure 4) clearly received a surplus in saturation transfer relative to the other ones, whereas the protons positioned on the pyridyl ring (i, Figure 4) and the protons in position ii (Figure 4) received both less amplification with the latter receiving the least amount (Figure 4). […]
The 1H-STD-NMR experiment was recorded at 25 °C with 512 scans on a Bruker Avance Neo 500 MHz spectrometer with prodigy cryoprobe system. […]

[5] = substrate: C[C@](O)(CO)[C@H](O)COP(=O)(O)O; experiment: Determination of enzyme kinetics (Michaelis constants of substrates, LC-MS); assay type: biochemical, Pseudomonas aeruginosa; conditions: other: substrate of PaIspD, 50 nM PaIspD, 37 °C, 40 minutes, pH 7.6
Experimental: as §1, §2, §3, §4
Figure S1: Kinetic parameters of PaIspD substrates (MEP, left and CTP, right). […]

[6] = -log KD, supplement sheet, CORRECTED VALUES
[7] = -log KD, supplement sheet, PUBLISHED VALUES
[8] = kd (M), supplement sheet, CORRECTED VALUES
[9] = kd (µM), supplement sheet, CORRECTED VALUES, MST Kd
[10] = supplement sheet, CORRECTED VALUES
[11] = supplement sheet, PUBLISHED VALUES
[12] = MST Kd, n=2, mean±SD, HEPES 50 mM, MgCl2 5 mM, Tween 0.05%, pH 7.6

Row | Molecule | Km (PaIspD [1]) | Vmax (PaIspD [1]) | Kd (PaIspD [2]; [6]) | Kd (PaIspD [2]; [7]) | Kd (PaIspD [2]; [8]) | Kd (PaIspD [2]; [9]) | LE (PaIspD [2]; [10]) | LLE (PaIspD [2]; [11]) | Kd (PaIspD [3]) | Competition STD NMR with CTP (PaIspD [4]; 1 mM 2, 10 mM CTP, 10 µM PaIspD) | 1H-STD NMR interaction with PaIspD (PaIspD [4]; HEPES buffer in D2O, 100-fold excess of 2 compared to PaIspD) | Kd (PaIspD [2]; [12]) | Km [5]
1 | Nc1ccn([C@@H]2O[C@H](COP(=O)(O)OP(=O)(O)OP(=O)(O)O)[C@@H](O)[C@H]2O)c(=O)n1 [CTP] | 200 ± 100 µM | 0.30 ± 0.01 AU/min-1 | – | – | – | – | – | – | – | – | – | – | –
2 | CN1Cc2cccnc2C1=O [Compound 2] | – | – | 0.000939 M | 0.000939 M | 0.000939 M | 0.000939 M | 0.377 | -1.358 | 977 ± 59 µM | STD signals of 2 disappeared | came into close proximity of the protein | – | –
3 | CN1CCC(N2Cc3cccnc3C2=O)CC1 [Compound 3] | – | – | 0.000186 M | 0.000186 M | 0.000186 M | 0.000186 M | 0.3006 | -0.7773 | 879 ± 64 µM | – | – | 0.000186 ± 7e-06 M | –
4 | O=C1c2ncccc2CN1Cc1ccccc1 [Compound 4] | – | – | 0.000133 M | 0.000133 M | 0.000133 M | 0.000133 M | 0.3124 | -0.9699 | 391 ± 35 µM | – | – | 0.000133 ± 1.2e-05 M | –
5 | O=C1c2ncccc2CN1CCN1CCOCC1 [Compound 5] | – | – | 0.000491 M | 0.000491 M | 0.000491 M | 0.000491 M | 0.2518 | -0.7374 | – | – | – | 0.000491 ± 2e-06 M | –
6 | O=C1c2ncccc2CN1CCc1c[nH]c2ccccc12 [Compound 6] | – | – | 0.000208 M | 0.000208 M | 0.000208 M | 0.000208 M | 0.2402 | -0.7939 | 332 ± 22 µM | – | – | 0.000208 ± 7e-06 M | –
7 | COC(=O)N(C)C1c2cccnc2C(=O)N1C (centres unmarked) [Compound 7] | – | – | 0.000454 M | 0.000454 M | 0.000454 M | 0.000454 M | 0.2694 | -0.728 | – | – | – | 0.000454 ± 2.7e-05 M | –
8 | CCC(=O)N(C)C1c2cccnc2C(=O)N1C (centres unmarked) [Compound 8] | – | – | – | – | – | – | – | – | 248 ± 15 µM | – | – | – | –
9 | CCC(CC)C(=O)N(C)C1c2cccnc2C(=O)N1C (centres unmarked) [Compound 9] | – | – | 0.000536 M | 0.000536 M | 0.000536 M | 0.000536 M | 0.2241 | -0.9347 | – | – | – | 0.000536 ± 4.7e-05 M | –
10 | CN(C(=O)c1ccncc1)C1c2cccnc2C(=O)N1C (centres unmarked) [Compound 10] | – | – | 0.000209 M | 0.000209 M | 0.000209 M | 0.000209 M | 0.2401 | -0.6357 | 310 ± 28 µM | – | – | 0.000209 ± 4e-06 M | –
11 | CN(C(=O)c1ccon1)C1c2cccnc2C(=O)N1C (centres unmarked) [Compound 11] | – | – | 0.000502 M | 0.000502 M | 0.000502 M | 0.000502 M | 0.226 | -0.6167 | 301 ± 16 µM | – | – | 0.000502 ± 5.6e-05 M | –
12 | CN1C(=O)c2ncccc2C1N(C)C(=O)N1CCOCC1 (centres unmarked) [Compound 12] | – | – | 0.000239 M | 0.000239 M | 0.000239 M | 0.000239 M | 0.2363 | -0.5431 | 371 ± 42 µM | – | – | 0.000239 ± 6e-06 M | –
13 | C[C@](O)(CO)[C@H](O)COP(=O)(O)O [MEP, 2‐C‐methylerythritol‐D‐erythritol‐4‐phosphate] | – | 0.30 ± 0.0 AU/min-1 | – | – | – | – | – | – | – | – | – | – | –
14 | PaIspD (Pseudomonas aeruginosa PAO1) (protein, His6 (N, cleaved yes); made in house; host or cells: Escherichia coli BL21 (DE3), pET28) MTTSDLPAFWTVIPAAGVGSRMRADRPKQYLDLAGRTVIERTLDCFLEHPMLRGLVVCLAEDDPYWPGLDCAASRHVQRAAGGAERAGSVLNGLLRLLELGAQADDWVLVHDAARPNLTRGDLDRLLEELAEDPVGGLLAVPARDTLKRSDRDGRVSETIDRSVVWLAYTPQMFRLGALHRALADALVAGVAITDEASAMEWAGYAPKLVEGRADNLKITTPEDLLRLQRSFPH | – | – | – | – | – | – | – | – | – | – | – | – | 210 ± 100 µM

Source: paper PMC11796317, “Fragment Discovery by X‐Ray Crystallographic Screening Targeting the CTP Binding Site of Pseudomonas Aeruginosa IspD” (Angewandte Chemie (International Ed. in English), 2025)
